For 29 compounds, Ki, Emax and EC50 results are on record in patent US7365095B2, “Chromane and chromene derivatives and uses thereof” (Wyeth, priority 2005, dated 2008).

Where a name gives a salt, the structure may show the parent alone.

Test [1] deals with T1, human 5-hydroxytryptamine-2C (h5-HT2C) receptor (Homo sapiens, UniProt P28335).
T1 construct: expressed in transfected cells; host or cells: CHO (Chinese Hamster Ovary) cells; membrane preparation
T1 sequence (P28335 33-458): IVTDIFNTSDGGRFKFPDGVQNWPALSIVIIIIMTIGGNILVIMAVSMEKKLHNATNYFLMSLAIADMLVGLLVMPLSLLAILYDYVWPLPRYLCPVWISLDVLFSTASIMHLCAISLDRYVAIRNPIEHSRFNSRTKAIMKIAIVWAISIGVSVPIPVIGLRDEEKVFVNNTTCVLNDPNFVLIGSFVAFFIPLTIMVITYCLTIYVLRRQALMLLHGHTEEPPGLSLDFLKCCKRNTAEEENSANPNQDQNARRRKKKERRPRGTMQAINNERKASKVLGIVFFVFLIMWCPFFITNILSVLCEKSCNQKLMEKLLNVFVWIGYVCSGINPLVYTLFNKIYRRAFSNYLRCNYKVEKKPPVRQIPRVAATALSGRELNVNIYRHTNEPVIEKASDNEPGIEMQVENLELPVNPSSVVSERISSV
Description: [125I]DOI binding to membranes of CHO cells expressing h5-HT2C receptor. The conditions noted are these: read-out: 5-HT2C Binding Ki avg.

In a further test the target is T2, human 5-HT2C receptor (Homo sapiens, UniProt P28335).
T2 sequence (P28335 33-458): T1 sequence (P28335 33-458)
Description: calcium mobilization (FLIPR) in CHO cells stably expressing the human 5-HT2C receptor. Type of test: cell-based. Conditions: for Emax: CHO, read-out: 5-HT2C Function EMax (%); for EC50: calcium mobilization, read-out: 5-HT2C Function EC50. (Calcium assays in cells follow changes in intracellular calcium, usually with a dye or a luminescent sensor.)

As usually defined, the Ki is a dissociation constant, usually derived from enzyme kinetics or from competition with a known ligand. Usually Emax stands for the greatest response seen or fitted, relative to the assay's reference. A word on the EC50: it is the midpoint of the concentration-response curve. As to `CNC[C@H]1CCc2cccc(-c3ccccc3Cl)c2O1` [Compound 10, N-{[(2R)-8-(2-chlorophenyl)-3,4-dihydro-2H-chromen-2-yl]methyl}-N-methylamine hydrochloride], the Ki in test [1] is no more than 10 nM. For the same compound, at human 5-HT2C receptor, the Emax is 100% and the EC50 was less than 50 nM.
For `CNCC1C=Cc2cc(F)cc(-c3ccccc3Cl)c2O1` (stereo not drawn) [Compound 61, {[8-(2-chlorophenyl)-6-fluoro-2H-chromen-2-yl]methyl}methylamine hydrochloride], in that order: no more than 10 nM, 90% and less than 50 nM.
`COc1ccc(-c2cccc3c2O[C@H](CN)CC3)c(OC)c1` [Compound 32, {[(2S)-8-(2,4-dimethoxyphenyl)-3,4-dihydro-2H-chromen-2-yl]methyl}amine hydrochloride]: the Ki in test [1] was 10 to 50 nM. In addition, at human 5-HT2C receptor, the Emax is 90% and the EC50 was in the range of 50 to 200 nM.
Consider `NC[C@H]1CCc2cc(F)cc(-c3ccccc3Cl)c2O1` [Compound 45, {[(2R)-8-(2-chlorophenyl)-6-fluoro-3,4-dihydro-2H-chromen-2-yl]methyl}amine hydrochloride], for which, in test [1], the inhibition constant Ki was no more than 10 nM. Moreover, at human 5-HT2C receptor, the Emax is 90% and the EC50 was less than 50 nM.
Take `Cc1ccccc1-c1cccc2c1O[C@@H](CN)CC2` [Compound 17, {[(2R)-8-(2-methylphenyl)-3,4-dihydro-2H-chromen-2-yl]methyl}amine hydrochloride]: the inhibitory constant (Ki) in test [1] is no more than 10 nM. On human 5-HT2C receptor, the maximal effect (Emax) was 80% and the EC50 was less than 50 nM.
Turning to `CNC[C@H]1CCc2cc(F)cc(-c3ccccc3C)c2O1` [Compound 43, {[(2R)-6-fluoro-8-(2-methylphenyl)-3,4-dihydro-2H-chromen-2-yl]methyl}methylamine hydrochloride], the inhibition constant Ki in test [1] is no more than 10 nM. In addition, on human 5-HT2C receptor, the Emax came to 90% and the EC50 was 50 to 200 nM.
Consider `COc1ccc(-c2cccc3c2O[C@@H](CN)CC3)c(OC)c1` [Compound 16, {[(2R)-8-(2,4-dimethoxyphenyl)-3,4-dihydro-2H-chromen-2-yl]methyl}amine hydrochloride], for which the Ki in test [1] was no more than 10 nM. At human 5-HT2C receptor, the maximal response (Emax) was found to be 100% and the EC50 is less than 50 nM.
For `NC[C@H]1CCc2cc(F)cc(-c3cc(Cl)ccc3Cl)c2O1` [Compound 46, {[(2R)-8-(2,5-dichlorophenyl)-6-fluoro-3,4-dihydro-2H-chromen-2-yl]methyl}amine hydrochloride], in that order: 10 to 50 nM, 90% and greater than 200 nM.
In the case of `CNC[C@H]1CCc2cc(F)cc(-c3ccc(Cl)cc3Cl)c2O1` [Compound 41, {[(2R)-8-(2,4-dichlorophenyl)-6-fluoro-3,4-dihydro-2H-chromen-2-yl]methyl}methylamine hydrochloride], the Ki in test [1] lay in the range of 10 to 50 nM. In addition, on human 5-HT2C receptor, the Emax turned out to be 90% and the EC50 was in the range of 50 to 200 nM.
Take `CNC[C@H]1CCc2cccc(-c3ccc(Cl)cc3Cl)c2O1` [Compound 4, {[(2R)-8-(2,4-dichlorophenyl)-3,4-dihydro-2H-chromen-2-yl]methyl}methylamine hydrochloride]: in test [1], the Ki was greater than 50 nM. Besides, on human 5-HT2C receptor, the maximal response (Emax) is 80% and the EC50 was less than 50 nM.
On to `CNC[C@H]1CCc2cccc(-c3ccccc3C)c2O1` [Compound 8, N-methyl-N-{[(2R)-8-(2-methylphenyl)-3,4-dihydro-2H-chromen-2-yl]methyl}amine hydrochloride], for which, in test [1], the Ki was no more than 10 nM. Besides, on human 5-HT2C receptor, the Emax is 100% and the EC50 was less than 50 nM.
On to `NC[C@H]1CCc2cccc(-c3cc(Cl)ccc3Cl)c2O1` [Compound 12, {[(2R)-8-(2,5-dichlorophenyl)-3,4-dihydro-2H-chromen-2-yl]methyl}amine hydrochloride], for which the Ki in test [1] lay in the range of 10 to 50 nM. Further, at human 5-HT2C receptor, the Emax amounted to 90% and the EC50 is 50 to 200 nM.
For `NC[C@H]1C=Cc2cc(F)cc(-c3cc(Cl)ccc3Cl)c2O1` [Compound 63, {[(2R)-8-(2,5-dichlorophenyl)-6-fluoro-2H-chromen-2-yl]methyl}amine hydrochloride], in that order: no more than 10 nM, 90% and less than 50 nM.
In the case of `NC[C@@H]1CCc2cc(F)cc(-c3ccccc3Cl)c2O1` [Compound 51, {[(2S)-8-(2-chlorophenyl)-6-fluoro-3,4-dihydro-2H-chromen-2-yl]methyl}amine hydrochloride], the Ki in test [1] is 10 to 50 nM. At human 5-HT2C receptor, the Emax stood at 80% and the 50% effective concentration (EC50) was less than 50 nM.
For `CNC[C@H]1CCc2cc(F)cc(-c3cc(Cl)ccc3Cl)c2O1` [Compound 40, {[(2R)-8-(2,5-dichlorophenyl)-6-fluoro-3,4-dihydro-2H-chromen-2-yl]methyl}methylamine hydrochloride], in that order: no more than 10 nM, 90% and less than 50 nM.
Consider `NC[C@H]1CCc2cc(F)cc(-c3ccccc3)c2O1` [Compound 48, {[(2R)-6-fluoro-8-phenyl-3,4-dihydro-2H-chromen-2-yl]methyl}amine hydrochloride], for which, in test [1], the Ki was no more than 10 nM. At human 5-HT2C receptor, the Emax turned out to be 90% and the EC50 lay within 50 to 200 nM.
As to `CNCC1CCc2cccc(-c3ccccc3Cl)c2O1` (stereo not drawn) [Compound 1, N-{[8-(2-chlorophenyl)-3,4-dihydro-2H-chromen-2-yl]methyl}-N-methylamine hydrochloride], the Ki in test [1] is 10 to 50 nM. Besides, on human 5-HT2C receptor, the Emax was found to be 80% and the EC50 was less than 50 nM.
On to `NC[C@@H]1CCc2cc(F)cc(-c3cc(Cl)ccc3Cl)c2O1` [Compound 55, {[(2S)-8-(2,5-dichlorophenyl)-6-fluoro-3,4-dihydro-2H-chromen-2-yl]methyl}amine hydrochloride], for which, in test [1], the Ki was no more than 10 nM. For the same compound, on human 5-HT2C receptor, the maximal response (Emax) turned out to be 70% and the EC50 lay within 50 to 200 nM.
For `Cc1ccccc1-c1cc(F)cc2c1O[C@H](CN)CC2` [Compound 53, {[(2S)-6-fluoro-8-(2-methylphenyl)-3,4-dihydro-2H-chromen-2-yl]methyl}amine hydrochloride], in that order: 10 to 50 nM, 70% and 50 to 200 nM.
For `CNC[C@@H]1CCc2cccc(-c3ccccc3Cl)c2O1` [Compound 19, {[(2S)-8-(2-chlorophenyl)-3,4-dihydro-2H-chromen-2-yl]methyl}methylamine hydrochloride], in that order: no more than 10 nM, 80% and 50 to 200 nM.
In the case of `CNC[C@H]1CCc2cc(F)cc(-c3ccccc3Cl)c2O1` [Compound 39, {[(2R)-8-(2-chlorophenyl)-6-fluoro-3,4-dihydro-2H-chromen-2-yl]methyl}methylamine hydrochloride], the Ki in test [1] is no more than 10 nM. Also, at human 5-HT2C receptor, the Emax worked out at 100% and the EC50 is less than 50 nM.
For `NC[C@@H]1CCc2cccc(-c3ccc(Cl)cc3Cl)c2O1` [Compound 29, {[(2S)-8-(2,4-dichlorophenyl)-3,4-dihydro-2H-chromen-2-yl]methyl}amine hydrochloride], in that order: 10 to 50 nM, 80% and greater than 200 nM.
For the compound `NC[C@H]1CCc2cccc(-c3ccccc3Cl)c2O1` [Compound 11, {[(2R)-8-(2-chlorophenyl)-3,4-dihydro-2H-chromen-2-yl]methyl}amine hydrochloride], the inhibitory constant (Ki) in test [1] was no more than 10 nM. For the same compound, at human 5-HT2C receptor, the Emax worked out at 100% and the EC50 was less than 50 nM.
For `COc1ccccc1-c1cc(F)cc2c1O[C@@H](CN)C=C2` [Compound 65, {[(2R)-6-fluoro-8-(2-methoxyphenyl)-2H-chromen-2-yl]methyl}amine hydrochloride], in that order: no more than 10 nM, 80% and less than 50 nM.
For the compound `NC[C@H]1C=Cc2cc(F)cc(-c3c(Cl)cccc3Cl)c2O1` [Compound 66, {[(2R)-8-(2,6-dichlorophenyl)-6-fluoro-2H-chromen-2-yl]methyl}amine hydrochloride], the Ki in test [1] is no more than 10 nM. At human 5-HT2C receptor, the Emax is 90% and the 50% effective concentration (EC50) is less than 50 nM.
For the compound `CNC[C@@H]1CCc2cccc(-c3ccc(OC)cc3OC)c2O1` [Compound 24, {[(2S)-8-(2,4-dimethoxyphenyl)-3,4-dihydro-2H-chromen-2-yl]methyl}methylamine hydrochloride], the Ki in test [1] lay in the range of 10 to 50 nM. Further, on human 5-HT2C receptor, the Emax stood at 100% and the EC50 is 50 to 200 nM.
For `CNC[C@H]1CCc2cccc(-c3cc(Cl)ccc3Cl)c2O1` [Compound 3, {[(2R)-8-(2,5-dichlorophenyl)-3,4-dihydro-2H-chromen-2-yl]methyl}methylamine hydrochloride], in that order: no more than 10 nM, 90% and less than 50 nM.
With `NC[C@H]1CCCc2cc(F)cc(-c3c(Cl)cccc3Cl)c2O1` [Compound 68, {[(2R)-9-(2,6-dichlorophenyl)-7-fluoro-2,3,4,5-tetrahydro-1-benzoxepin-2-yl]methyl}amine hydrochloride], the Ki in test [1] lay within 10 to 50 nM. Also, on human 5-HT2C receptor, the maximal response (Emax) is 80% and the EC50 lay within 50 to 200 nM.
For the compound `NC[C@H]1CCc2cccc(-c3cccnc3)c2O1` [Compound 18, {[(2R)-8-pyridin-3-yl-3,4-dihydro-2H-chromen-2-yl]methyl}amine hydrochloride], the Ki in test [1] was greater than 50 nM. At human 5-HT2C receptor, the Emax was found to be 90% and the EC50 was less than 50 nM.
